In this experiment the test system is D. citri. The format is in vivo, Diaphorina citri. Particulars: four-arm olfactometer; for Percentage of individuals that chose each compound, final choice / Percentage of individuals that chose each compound, first choice: 10 μL pure compound in two arms versus clean air in two arms, 5 min observation; for Behavioural response of psyllids to pure compound (in words): 10 μL pure compound versus clean air.

In the case of `CC1=CC[C@H]2[C@H]3[C@@H]1[C@]2(C)CC[C@H]3C(C)C` [α-copaene], the “Percentage of individuals that chose each compound, final choice” value worked out at 33.0%; the “Percentage of individuals that chose each compound, first choice” value came to 42.0%; the “Behavioural response of psyllids to pure compound (in words)” value is given as “higher level of psyllids entering the unscented arm”.

In the case of `C=C1CC/C=C(\C)CC[C@@H]2[C@@H]1CC2(C)C` [β-caryophyllene], the “Percentage of individuals that chose each compound, final choice” value was 32.0%; the “Percentage of individuals that chose each compound, first choice” value was determined as 42.3%; the “Behavioural response of psyllids to pure compound (in words)” value is reported as “higher level of psyllids entering the unscented arm”.

Source of the values: patent publication US9572349B2 (priority 2009, dated 2017).
